Where two headings read alike, the source gives them in different places.
Key:
human recombinant AR [1] = target: T1, human recombinant AR (Homo sapiens, UniProt P15121); design: method as in PMID 30342956; details: reversible inhibitors; cited from earlier work
T1 construct: made in house; host or cells: E. coli BL21(DE3)pLysS

human recombinant PTP1B [2] = target: T2, human recombinant PTP1B (Homo sapiens, UniProt P18031); design: method as in PMID 30342956; details: reversible inhibitors; cited from earlier work
T2 sequence (P18031 1-435): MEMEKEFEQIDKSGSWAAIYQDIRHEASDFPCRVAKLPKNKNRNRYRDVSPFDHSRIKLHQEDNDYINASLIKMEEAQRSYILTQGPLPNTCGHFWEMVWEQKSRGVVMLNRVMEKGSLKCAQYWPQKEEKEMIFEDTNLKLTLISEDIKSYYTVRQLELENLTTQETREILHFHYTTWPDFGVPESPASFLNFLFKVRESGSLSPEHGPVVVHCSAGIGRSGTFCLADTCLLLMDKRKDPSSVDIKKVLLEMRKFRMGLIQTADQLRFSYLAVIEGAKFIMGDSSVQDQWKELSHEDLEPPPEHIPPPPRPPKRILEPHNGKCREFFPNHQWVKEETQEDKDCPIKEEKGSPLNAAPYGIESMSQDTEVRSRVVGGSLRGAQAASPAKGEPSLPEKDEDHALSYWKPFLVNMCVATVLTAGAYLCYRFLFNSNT

human recombinant AR [3] = target: T1, human recombinant AR; assay: Inhibition of human recombinant AR, L-idose as substrate (NADPH oxidation at 340 nm); format: biochemical; details: human recombinant AR, 2 mM L-idose as substrate; mean ± S.E.M
Description: The human recombinant AR was expressed in BL21(DE3)pLysS E. coli cells and purified to electrophoretic homogeneity as previously described. The purified enzyme (specific activity 5.0 U/mg) was stored at −80 °C in 10 mM sodium phosphate buffer pH 7.0 containing 2 mM dithiothreitol and 30% (w/v) glycerol. AR activity was determined at 37 °C as previously described evaluating the decrease in absorbance at 340 nm linked to NADPH oxidation. […] One unit of enzyme activity is the amount that catalyzes the conversion of 1 μmol of substrate/min in the above assay conditions.
All compounds tested as aldose reductase inhibitors were dissolved in DMSO and added to the assay mixture containing 8 mU of purified AR. The reaction was started by addition of the substrate. The DMSO concentration in all the assays was kept constant at 0.5% (v/v) in order to avoid effects on AR activity.
The IC50 values were determined by nonlinear regression analysis using Prism GraphPad 6.0 fitting experimental data to the following equation:(1) vi/v0= Max−Min/1+( I/IC50)^slope +Min
In the equation, vi/v0, represents the ratio between the activity measured in the presence of the inhibitor and the activity measured in the absence of inhibitor; Max and Min represent the expected maximal and minimal value of the activity and were fixed at 1 and zero, respectively. Slope, which describes the steepness of curve in the transition region, was fixed at −1. For each compound, at least five different concentrations of inhibitor in the triplicate assay were analyzed.

human recombinant PTP1B [4] = target: T2, human recombinant PTP1B; assay: Inhibition of human recombinant PTP1B, p-nitrophenyl phosphate as substrate; format: biochemical; details: human recombinant PTP1B, pNPP as substrate; mean ± S.E.M
Description: PTP1B activity was determined as follow. […] After an appropriate interval time, the reaction was stopped diluting assay solution with 2 mL of KOH 0.1 M. The amount of p-nitrophenol released was determined measuring the absorbance of the solution at 400 nm using a spectrophotometer and a 1-cm optical pathlength (εmM of p-nitrophenol is 18). The IC50 value was determined measuring the pNPP hydrolysis rate in the presence of increasing inhibitor concentration. For each inhibitor, 15–16 different concentrations were used. All tests were carried out in triplicate and data obtained were normalized respect to control sample.

human recombinant AR [5] = target: T1, human recombinant AR; assay: Kinetic analysis of AR inhibition (Lineweaver-Burk and secondary plots); format: biochemical; details: for AR Ki relative to K′i: Ki higher than K′i; for AR K′i (apparent dissociation constant, EIS complex) / Mechanism of AR inhibition / Ki: L-idose as substrate; for Ki: read-out: AR Ki (apparent dissociation constant)
Description: The kinetic analysis of compounds 4a, 4e and 4f was performed by measuring reaction rates with different L-idose concentrations s (S) in the absence and in the presence of different inhibitors concentrations. Data were analyzed by Linewever-Burk plots.

human recombinant PTP1B [6] = target: T2, human recombinant PTP1B; assay: Kinetic analysis of PTP1B inhibition (Lineweaver-Burk plot); format: biochemical; details: pNPP as substrate; for Ki: read-out: PTP1B Ki (apparent dissociation constant)
Description: Kinetic analyses were carried out to dissect action mechanism of compound 4e and 4f. Briefly, the main kinetic parameters, Km and Vmax, were calculated measuring the initial hydrolysis rate of PTP1B in the presence of increasing pNPP concentration (seven different concentrations in the 0.5–25 mM range). All assays were carried out in duplicate. Data obtained were fitted using the Michaelis-Menten equation. To evaluate the action mechanism of inhibitors, we studied the dependence of Km and Vmax from inhibitors concentration, using three different inhibitor concentrations, at least. Data obtained were then analysed by double reciprocal plot (Lineweaver-Burk plot).

human recombinant AR [7] = target: T1, human recombinant AR; assay: Reversibility of AR inhibition (dialysis); format: biochemical; details: for AR enzyme activity recovered after removal of the inhibitor upon extensive dialysis: 5 μM compound before dialysis; for AR enzyme activity measured in the presence of compound: 5 μM compound, 2 mM L-idose, before dialysis
Description: In order to evaluate the reversibility of the inhibitory action, 8 mU of purified AR were assayed in the presence of 5 μM of compounds 4a, 4e and 4f. In these conditions less than 15% of the enzyme activity was measured in the presence of 2 mM L-idose as substrate. The mixture was then extensively dialysed on Amicon ultrafiltration membrane (cut off 10 KDa) against 10 mM sodium phosphate buffer, pH 7.0. After dialysis, the enzyme activity was again measured as above and compared to that of a mixture in the absence of inhibitor and treated in the same conditions.

human recombinant PTP1B [8] = target: T2, human recombinant PTP1B; assay: Reversibility assay (dilution test) with PTP1B; format: biochemical; details: saturating inhibitor, 60 min 37 °C, diluted 400 folds
Description: An aliquot of the enzyme was incubated for 60 min at 37 °C in the presence of saturating amount of PTP1B inhibitor. After this time, an aliquot of the enzyme was withdrawn and diluted 400 folds in the assay buffer containing 2.5 mM of pNPP. After 15 min, the reaction was stopped by adding 1 mL of KOH 0.2 M. The amount of pNP released was calculating measuring the absorbance at 400 nm of solutions using a spectrophotometer. Data obtained were normalized respect to control tests, which was carried out diluting the enzyme with DMSO, the solvent used to dissolve all compounds. Data reported in the figure represent the mean value +/− S.E.M. (n = 3).

Compound | Mechanism of AR inhibition (human recombinant AR [1]) | Mechanism of PTP1B inhibition (human recombinant PTP1B [2]) | IC50 (human recombinant AR [3]) [µM] | IC50 (human recombinant PTP1B [4]) [µM] | AR Ki relative to K′i (human recombinant AR [5]) | AR K′i (apparent dissociation constant, EIS complex) (human recombinant AR [5]) [µM] | Mechanism of AR inhibition (human recombinant AR [5]) | Ki (human recombinant AR [5]) [µM] | Mechanism of PTP1B inhibition (human recombinant PTP1B [6]) | PTP1B K′i (apparent dissociation constant, EIS complex) (human recombinant PTP1B [6]) [µM] | Ki (human recombinant PTP1B [6]) [µM] | AR enzyme activity recovered after removal of the inhibitor upon extensive dialysis (human recombinant AR [7]) | AR enzyme activity measured in the presence of compound (human recombinant AR [7]) | Reversibility of PTP1B inhibition (human recombinant PTP1B [8]) | melting point [°C]
O=C(O)CN1C(=O)S/C(=C\c2cccc(OCCc3ccccc3)c2)C1=O [1e] | uncompetitive | non-competitive |  |  |  |  |  |  |  |  |  |  |  |  | 
O=C(O)CN1C(=O)/C(=C/c2cccc(OCCc3ccccc3)c2)SC1=S [2e, (4-oxo-5-{[3-(2-phenylethoxy)pheny]lmethylidene}-2-thioxothiazolidin-3-yl)acetic acid] | uncompetitive | non-competitive |  |  |  |  |  |  |  |  |  |  |  |  | 
O=C(O)CCN1C(=O)/C(=C/c2cccc(Oc3ccccc3)c2)SC1=S [4a, 3-{(5Z)[4-Oxo-5-(3-phenoxyphenyl)methylidene-2-thioxothiazolidin-3-yl]}propanoic acid] |  |  | 2.2 ± 0.1 | 34.1 ± 0.5 | approximately 4 fold | 1.4 ± 0.022 | mixed-type inhibition | 5 ± 0.57 | mixed-type non-competitive inhibitors | 68.9 ± 1.5 | 10.6 ± 1.7 | more than 90% | less than 15% | reversible inhibitors | 
O=C(O)CCN1C(=O)/C(=C/c2cccc(OCCc3ccccc3)c2)SC1=S [4e, 3-[(5Z)-4-Oxo-{5-[3-(2-phenylethoxy)phenyl]methylidene}-2-thioxothiazolidin-3-yl]propanoic acid] |  |  | 2.3 ± 0.1 | 55.5 ± 0.8 | at least ten-fold higher | 0.66 ± 0.30 | uncompetitive inhibitors | > 8 | competitive inhibitor | >12 | 2.2 ± 0.3 | more than 90% | less than 15% | reversible inhibitors | 136 to 138

From paper PMC7828111, “In Search for Multi-Target Ligands as Potential Agents for Diabetes Mellitus and Its Complications—A Structure-Activity Relationship Study on Inhibitors of Aldose Reductase and Protein Tyrosine Phosphatase 1B” (Molecules, 2021)
